The results in this text go back to patent publication US8754242B2, “Herbicides” (Syngenta Crop Protection LLC, priority 2007, dated 2014).

Common to all, as to assay type: in vivo
Experiment [1] has as its system Avena fatua (AVEFA). In words: Test Example 1 pre-emergence herbicidal activity. The conditions noted are these: rate 250 g/ha, evaluated 20 days later; for pest or weed control at 250 g/ha: Avena fatua, 480 h, read-out: Pre-emergence activity AVEFA (100=total damage to plant; 0=no damage to plant). The protocol:
(§1) Monocotyledonous and dicotyledonous test plants were sown in standard soil in pots. After cultivation for one day (pre-emergence) or after 10 days cultivation (post-emergence) under controlled conditions in a glasshouse, the plants were sprayed with an aqueous spray solution derived from the formulation of the technical active ingredient in 0.6 ml acetone and 45 ml formulation solution containing 10.6% Emulsogen EL (Registry number 61791-12-6), 42.2% N-methylpyrrolidone, 42.2% dipropylene glycol monomethyl ether (Registry number 34590-94-8) and 0.2% X-77 (Registry number 11097-66-8). The test plants were then grown in a greenhouse under optimum conditions until, 15 days later for post-emergence and 20 days for pre-emergence, the test was evaluated (100=total damage to plant; 0=no damage to plant).
(§2) Alopecurus myosuroides (ALOMY), Avena fatua (AVEFA), Lolium perenne (LOLPE), Setaria faberi (SETFA), Digitaria sanguinalis (DIGSA), Echinochloa crus-galli (ECHCG)

In experiment [2] the test system is Lolium perenne (LOLPE). In words: Test Example 1 pre-emergence herbicidal activity. The settings on record: Lolium perenne, 480 h, rate 250 g/ha, evaluated 20 days later, read-out: Pre-emergence activity LOLPE (100=total damage to plant; 0=no damage to plant). The protocol: as §1, §2
Experiment [3] concerns Echinochloa crus-galli (ECHCG). In words: Test Example 1 pre-emergence herbicidal activity. The settings on record: Echinochloa crus-galli, 480 h, rate 250 g/ha, evaluated 20 days later, read-out: Pre-emergence activity ECHCG (100=total damage to plant; 0=no damage to plant). As for the experimental part: as §1, §2
In experiment [4] the test system is Alopecurus myosuroides (ALOMY). In words: Test Example 1 pre-emergence herbicidal activity. The settings on record: rate 250 g/ha, evaluated 20 days later; for pest or weed control at 250 g/ha: Alopecurus myosuroides, 480 h, read-out: Pre-emergence activity ALOMY (100=total damage to plant; 0=no damage to plant). The protocol:
as §1, §2

The subject of experiment [5] is Digitaria sanguinalis (DIGSA). In words: Test Example 1 pre-emergence herbicidal activity. The settings on record: Digitaria sanguinalis, 480 h, rate 250 g/ha, evaluated 20 days later, read-out: Pre-emergence activity DIGSA (100=total damage to plant; 0=no damage to plant). The protocol: as §1, §2
Experiment [6] has as its system Setaria faberi (SETFA). In words: Test Example 1 pre-emergence herbicidal activity. The settings on record: Setaria faberi, 480 h, rate 250 g/ha, evaluated 20 days later, read-out: Pre-emergence activity SETFA (100=total damage to plant; 0=no damage to plant). The protocol:
as §1, §2

The test system of experiment [7] is Avena fatua (AVEFA). Nature of the experiment: Test Example 1 post-emergence herbicidal activity. The conditions noted are these: 360 h, rate 125 g/ha, evaluated 15 days later, read-out: Post-emergence activity AVEFA (100=total damage to plant; 0=no damage to plant). The protocol:
as §1, §2

Experiment [8] has as its system Lolium perenne (LOLPE). In words: Test Example 1 post-emergence herbicidal activity. The conditions noted are these: 360 h, rate 125 g/ha, evaluated 15 days later, read-out: Post-emergence activity LOLPE (100=total damage to plant; 0=no damage to plant). As for the experimental part: as §1, §2
The test system of experiment [9] is Echinochloa crus-galli (ECHCG). In words: Test Example 1 post-emergence herbicidal activity. The conditions noted are these: 360 h, rate 125 g/ha, evaluated 15 days later, read-out: Post-emergence activity ECHCG (100=total damage to plant; 0=no damage to plant). As for the experimental part:
as §1, §2

The test system of experiment [10] is Alopecurus myosuroides (ALOMY). Nature of the experiment: Test Example 1 post-emergence herbicidal activity. The settings on record: 360 h, rate 125 g/ha, evaluated 15 days later, read-out: Post-emergence activity ALOMY (100=total damage to plant; 0=no damage to plant). The protocol: as §1, §2
Experiment [11] deals with Digitaria sanguinalis (DIGSA). In words: Test Example 1 post-emergence herbicidal activity. The settings on record: 360 h, rate 125 g/ha, evaluated 15 days later, read-out: Post-emergence activity DIGSA (100=total damage to plant; 0=no damage to plant). The protocol: as §1, §2
The subject of experiment [12] is Setaria faberi (SETFA). Nature of the experiment: Test Example 1 post-emergence herbicidal activity. The conditions noted are these: 360 h, rate 125 g/ha, evaluated 15 days later, read-out: Post-emergence activity SETFA (100=total damage to plant; 0=no damage to plant). The protocol:
as §1, §2

SMILES strings stand for the structures.

Turning to `Cc1cc(C)c(C2=C(O)[C@H]3[C@@H](C2=O)[C@@H]2CC[C@@]3(C)O2)c(C)c1` (racemic) [Example T9], in the experiment on Avena fatua (AVEFA) [1], the “Pre-emergence activity AVEFA (100=total damage to plant; 0=no damage to plant)” value was found to be 40. Moreover, the pest or weed control at 250 g/ha (in the experiment on Lolium perenne (LOLPE) [2]; in experiment [3]; in experiment [5]; in the experiment with Setaria faberi (SETFA) [6]) was 100% in each case. For the same compound, in experiment [4], the “Pre-emergence activity ALOMY (100=total damage to plant; 0=no damage to plant)” value is given as 70. For the same compound, the pest or weed control at 125 g/ha in the experiment with Avena fatua (AVEFA) [7] amounted to 60%; in the experiment on Lolium perenne (LOLPE) [8], 70%; in experiment [9] it was 100%; in experiment [10], 80%; in experiment [11], 100%; in the experiment on Setaria faberi (SETFA) [12], 80%.

For the compound `CCc1cc(C)cc(CC)c1C1=C(O)[C@H]2[C@@H](C1=O)[C@@H]1C=C(C#C[Si](C)(C)C)[C@H]2O1` (racemic) [Example T11], the pest or weed control at 250 g/ha with Avena fatua (AVEFA) [1] came to 40%; in the experiment with Lolium perenne (LOLPE) [2], 60%; in experiment [3], 30%; in experiment [4], 30%; in experiment [5], 0%; in the experiment on Setaria faberi (SETFA) [6] it was 20%. Further, the pest or weed control at 125 g/ha with Avena fatua (AVEFA) [7] was 20%; with Lolium perenne (LOLPE) [8] it was 30%; in [9] it was 70%; in experiment [10], 40%; in experiment [11], 80%; in the experiment on Setaria faberi (SETFA) [12], 70%.

In the case of `CCc1cc(C)cc(CC)c1C1=C(O)[C@H]2[C@@H](C1=O)[C@@H]1C=C[C@@]2(CO)O1` (racemic) [Example T13], the pest or weed control at 250 g/ha with Avena fatua (AVEFA) [1] was determined as 80%; with Lolium perenne (LOLPE) [2], 90%; in experiment [3], 100%; in experiment [4], 80%; in experiment [5], 100%; in the experiment with Setaria faberi (SETFA) [6] it was 100%. Further, the pest or weed control at 125 g/ha was determined as 90% with Avena fatua (AVEFA) [7]; 90% with Lolium perenne (LOLPE) [8]; 100% in [9]; 80% in experiment [10]; 50% in experiment [11]; 100% in the experiment on Setaria faberi (SETFA) [12].

As for `Cc1cc(C)c(C2=C(O)[C@H]3[C@@H](C2=O)[C@@H]2C=C[C@@]3(CO)O2)c(C)c1` (racemic) [Example T37], the pest or weed control at 250 g/ha with Avena fatua (AVEFA) [1] was determined as 30%; in the experiment on Lolium perenne (LOLPE) [2] it was 30%; in [3] it was 30%; in experiment [4], 60%; in [5], 20%; in the experiment with Setaria faberi (SETFA) [6], 0%. For the same compound, the pest or weed control at 125 g/ha with Avena fatua (AVEFA) [7] was 20%; with Lolium perenne (LOLPE) [8] it was 20%; in experiment [9], 80%; in experiment [10] it was 50%; in experiment [11] it was 50%; in the experiment with Setaria faberi (SETFA) [12], 70%.

`CSC[C@]12C=C[C@H](O1)[C@@H]1C(=O)C(c3c(C)cc(C)cc3C)=C(O)[C@@H]12` (racemic) [Example T41]: the pest or weed control at 250 g/ha in the experiment with Avena fatua (AVEFA) [1] was 30%; in the experiment on Lolium perenne (LOLPE) [2], 20%; in experiment [3], 70%; in experiment [4], 50%; in experiment [5] it was 30%; in the experiment with Setaria faberi (SETFA) [6], 60%. Moreover, the pest or weed control at 125 g/ha in the experiment with Avena fatua (AVEFA) [7] was 0%; in the experiment with Lolium perenne (LOLPE) [8], 0%; in experiment [9], 80%; in [10] it was 40%; in [11], 80%; in the experiment with Setaria faberi (SETFA) [12], 80%.

With `CCCCC[C@]12C=C[C@H](O1)[C@@H]1C(=O)C(c3c(C)cc(C)cc3C)=C(O)[C@@H]12` (racemic) [Example T42], the pest or weed control at 250 g/ha in the experiment on Avena fatua (AVEFA) [1] was 10%; in the experiment with Lolium perenne (LOLPE) [2], 0%; in experiment [3], 30%; in experiment [4], 0%; in experiment [5] it was 0%; in the experiment with Setaria faberi (SETFA) [6] it was 0%. The pest or weed control at 125 g/ha in the experiment on Avena fatua (AVEFA) [7] came to 0%; with Lolium perenne (LOLPE) [8], 10%; in experiment [9], 60%; in experiment [10] it was 0%; in [11] it was 20%; in the experiment with Setaria faberi (SETFA) [12], 0%.

As to `Cc1cc(C)c(C2=C(O)[C@H]3[C@@H](C2=O)[C@@H]2C=C[C@@]3(CSC(C)C)O2)c(C)c1` (racemic) [Example T43], the pest or weed control at 250 g/ha with Avena fatua (AVEFA) [1] came out at 20%; in the experiment on Lolium perenne (LOLPE) [2], 0%; in experiment [3], 0%; in experiment [4], 10%; in experiment [5], 20%; in the experiment with Setaria faberi (SETFA) [6], 50%. Also, the pest or weed control at 125 g/ha was 0% with Avena fatua (AVEFA) [7]; 0% in the experiment on Lolium perenne (LOLPE) [8]; 60% in experiment [9]; 10% in experiment [10]; 20% in experiment [11]; 40% in the experiment with Setaria faberi (SETFA) [12].

For the compound `CC1=C[C@@H]2O[C@H]1[C@H]1C(O)=C(c3c(C)cc(C)cc3C)C(=O)[C@H]12` (racemic) [Example T44], the pest or weed control at 250 g/ha with Avena fatua (AVEFA) [1] came to 40%; with Lolium perenne (LOLPE) [2] it was 70%; in [3] it was 70%; in [4], 80%; in experiment [5], 80%; with Setaria faberi (SETFA) [6], 80%. Moreover, the pest or weed control at 125 g/ha with Avena fatua (AVEFA) [7] came to 50%; with Lolium perenne (LOLPE) [8] it was 20%; in [9], 90%; in [10], 80%; in [11], 80%; with Setaria faberi (SETFA) [12] it was 80%.

For `COc1ccc([C@@H]2C[C@@H]3O[C@H]2[C@H]2C(O)=C(c4c(C)cc(C)cc4C)C(=O)[C@H]23)cc1` (racemic) [Example T57], the pest or weed control at 250 g/ha with Avena fatua (AVEFA) [1] was 30%; in the experiment on Lolium perenne (LOLPE) [2], 100%; in experiment [3], 70%; in experiment [4], 50%; in experiment [5] it was 60%; in the experiment on Setaria faberi (SETFA) [6], 80%. The pest or weed control at 125 g/ha in the experiment with Avena fatua (AVEFA) [7] worked out at 70%; in the experiment with Lolium perenne (LOLPE) [8], 40%; in [9], 80%; in [10], 70%; in [11] it was 70%; with Setaria faberi (SETFA) [12], 70%.

Regarding `CSC1=C[C@@H]2O[C@@]1(C)[C@@H]1C(O)=C(c3c(C)cc(C)cc3C)C(=O)[C@H]21` (racemic) [Example T64], the pest or weed control at 250 g/ha amounted to 0% in the experiment with Avena fatua (AVEFA) [1]; 10% with Lolium perenne (LOLPE) [2]; 50% in experiment [3]; 0% in [4]; 10% in experiment [5]; 20% in the experiment on Setaria faberi (SETFA) [6]. The pest or weed control at 125 g/ha in the experiment with Avena fatua (AVEFA) [7] came to 0%; in the experiment on Lolium perenne (LOLPE) [8] it was 0%; in [9], 50%; in experiment [10] it was 10%; in experiment [11] it was 60%; in the experiment with Setaria faberi (SETFA) [12], 30%.
